The values that follow come from patent US10011629B2, “Nucleoside analogs for treatment of the flaviviridae family of viruses and cancer” (Cocrystal Pharma, Inc., priority 2015, dated 2018).

In data set [1] the target is HCV NS5B RNA polymerase GT 3a WT. Nature of the data set: NS5B enzyme assay, GT 3a WT. The format is biochemical. The settings on record: NS5B enzyme GT 3a WT; average of two to three replicates ± SD. The protocol:
The 21-amino-acid C-terminal truncated HCV NS5B RNA polymerase can be cloned from the HCV replicon cells, modified with a six-His-terminal tail, expressed in a prokaryotic expression vector (pQE60; Qiagen), and subsequently purified over a Talon cobalt affinity resin column (Clontech, Palo Alto, Calif.).^1 Purification can be monitored by SDS-PAGE and Western blotting. The resulting purified protein can be dialyzed overnight against 50 mM sodium phosphate (pH 8.0)-300 mM sodium chloride-0.5% Triton X-100-50% glycerol-2 mM dithiothreitol. The dialysate maintains consistent activity for more than 6 months when stored at −20° C. Protein can be quantified with the Coomassie Plus protein assay reagent (Pierce) by using a bovine serum albumin standard from the same supplier.
NS5B RNA polymerase reaction can be studied by monitoring the incorporation of ^32P-labeled UMP into the newly synthesized RNA strand by using minus IRES as the template. […] After the membrane is rinsed with water followed by rinsing with ethanol, the dots can be cut out and the radioactivity counted in a Packard liquid scintillation counter. The amount of product can be calculated on the basis of the total radioactivity in the reaction mixture. The rate of the reaction can be determined from the slope of the time course of product formation. […]

Data set [2] deals with T1, HCV NS5B RNA polymerase GT 3a L159F (Hepatitis C virus genotype 3a, UniProt Q81258, L2589F).
T1 construct: The 21-amino-acid C-terminal truncated HCV NS5B RNA polymerase; His6; made in house
T1 sequence (Q81258 2431-3000 L2589F): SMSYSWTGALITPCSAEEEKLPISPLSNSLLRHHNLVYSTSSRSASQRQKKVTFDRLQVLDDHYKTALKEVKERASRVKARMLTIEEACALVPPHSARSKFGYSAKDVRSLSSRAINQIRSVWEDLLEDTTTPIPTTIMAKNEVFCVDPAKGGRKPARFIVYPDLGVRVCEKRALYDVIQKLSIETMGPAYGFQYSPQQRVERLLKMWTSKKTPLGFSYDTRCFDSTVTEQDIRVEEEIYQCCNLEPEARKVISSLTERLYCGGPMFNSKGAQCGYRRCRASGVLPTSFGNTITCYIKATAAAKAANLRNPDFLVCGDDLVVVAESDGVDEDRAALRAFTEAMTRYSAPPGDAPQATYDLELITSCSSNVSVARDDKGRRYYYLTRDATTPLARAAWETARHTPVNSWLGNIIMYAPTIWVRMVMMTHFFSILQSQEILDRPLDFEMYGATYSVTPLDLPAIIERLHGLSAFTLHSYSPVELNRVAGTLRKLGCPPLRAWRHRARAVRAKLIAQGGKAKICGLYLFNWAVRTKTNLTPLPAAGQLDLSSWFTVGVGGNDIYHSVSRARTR
Briefly: NS5B enzyme assay, GT 3a L159F. The settings on record: NS5B enzyme GT 3a L159F; average of two to three replicates ± SD. Type of data set: biochemical.
Method: The 21-amino-acid C-terminal truncated HCV NS5B RNA polymerase can be cloned from the HCV replicon cells, modified with a six-His-terminal tail, expressed in a prokaryotic expression vector (pQE60; Qiagen), and subsequently purified over a Talon cobalt affinity resin column (Clontech, Palo Alto, Calif.).^1 Purification can be monitored by SDS-PAGE and Western blotting. The resulting purified protein can be dialyzed overnight against 50 mM sodium phosphate (pH 8.0)-300 mM sodium chloride-0.5% Triton X-100-50% glycerol-2 mM dithiothreitol. […] Protein can be quantified with the Coomassie Plus protein assay reagent (Pierce) by using a bovine serum albumin standard from the same supplier.

The target of data set [3] is human mitochondrial RNA polymerase (POLRMT) (Homo sapiens, UniProt O00411). Nature of the data set: In vitro human mitochondrial RNA polymerase (POLRMT) incorporation assay. Particulars: 100 μM rNTP, 2 hr, normalized to natural rNTP.
Sequence of human mitochondrial RNA polymerase (POLRMT) (O00411 42-1230): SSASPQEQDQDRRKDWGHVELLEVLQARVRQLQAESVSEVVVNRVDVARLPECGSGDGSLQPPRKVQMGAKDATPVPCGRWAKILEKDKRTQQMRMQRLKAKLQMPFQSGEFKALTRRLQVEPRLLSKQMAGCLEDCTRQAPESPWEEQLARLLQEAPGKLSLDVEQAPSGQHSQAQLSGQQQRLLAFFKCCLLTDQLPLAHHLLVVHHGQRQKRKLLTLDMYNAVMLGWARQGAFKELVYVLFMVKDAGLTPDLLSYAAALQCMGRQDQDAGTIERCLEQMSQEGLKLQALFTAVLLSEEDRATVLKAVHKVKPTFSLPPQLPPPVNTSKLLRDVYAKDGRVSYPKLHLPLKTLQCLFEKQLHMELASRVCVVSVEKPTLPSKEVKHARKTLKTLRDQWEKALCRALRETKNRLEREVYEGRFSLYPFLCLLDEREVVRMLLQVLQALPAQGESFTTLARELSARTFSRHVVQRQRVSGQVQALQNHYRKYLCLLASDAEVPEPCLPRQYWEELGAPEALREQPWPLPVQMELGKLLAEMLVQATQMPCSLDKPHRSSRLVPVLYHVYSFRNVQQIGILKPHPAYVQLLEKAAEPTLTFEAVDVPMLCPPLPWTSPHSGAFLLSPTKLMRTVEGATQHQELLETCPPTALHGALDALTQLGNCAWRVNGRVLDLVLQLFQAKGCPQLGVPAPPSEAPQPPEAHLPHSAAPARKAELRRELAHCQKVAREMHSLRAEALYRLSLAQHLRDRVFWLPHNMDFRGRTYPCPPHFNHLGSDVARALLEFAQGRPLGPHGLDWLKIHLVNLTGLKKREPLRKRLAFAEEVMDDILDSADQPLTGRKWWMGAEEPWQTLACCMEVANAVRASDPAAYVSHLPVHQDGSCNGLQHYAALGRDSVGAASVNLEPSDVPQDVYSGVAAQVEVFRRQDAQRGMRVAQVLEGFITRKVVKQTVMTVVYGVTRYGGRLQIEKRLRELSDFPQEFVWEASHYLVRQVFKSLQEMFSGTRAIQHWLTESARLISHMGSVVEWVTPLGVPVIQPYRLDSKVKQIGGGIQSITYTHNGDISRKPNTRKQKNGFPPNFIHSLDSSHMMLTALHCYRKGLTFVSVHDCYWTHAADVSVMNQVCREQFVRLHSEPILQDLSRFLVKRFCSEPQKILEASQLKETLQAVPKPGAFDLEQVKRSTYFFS
Method: 125 nM of POLRMT was incubated with 500 nM of 5′-radiolabled RNA/DNA hybrid, 10 mM MgCl2 and 100 μM of the corresponding nucleoside triphosphate. For non-nucleoside analogs, 100 μM of inhibitor was added at the same time as 100 μM UTP. Incorporation was allowed to proceed for 2 h at 30° C. and reactions were stopped by the addition of 10 mM EDTA and formamide. Samples were visualized on 20% denaturing polyacrylamide gel. Data were analyzed by normalizing the product fraction for each nucleoside triphosphate analog to that of the corresponding natural nucleoside triphosphate.
100 μM of each rNTP was incubated with POLRMT enzyme and the appropriate DNA/RNA primer/template hybrid and incorporation was evaluated at 2 hr. Nucleoside triphosphate analog incorporation was normalized to that of natural rNTP substrates.

Broadly, the EC50 is the concentration at which the effect is half-maximal. Read a high EC50 as weaker potency. With `C[C@@]1(F)[C@H](O)[C@@H](COP(=O)(O)OP(=O)(O)OP(=O)(O)O)O[C@H]1n1ccc(=O)[nH]c1=O` [2′-Me-2′-F-UTP], the EC50 in data set [1] turned out to be 7.2 ± 2.1 µM; in data set [2], 5.2 ± 1.4 µM. In addition, the “incorporation by POLRMT as compared to natural UTP” value in data set [3] was 3.1%.
